Consider eight molecules from patent US8119656B2, “Inhibitors of the influenza virus non-structural 1 protein” (The Board of Regents of the University of Texas System, priority 2007, dated 2012).

One assay concerns influenza virus (WSN). The class given is cell-based.
The test system of another assay is influenza virus. As to the kind of experiment: Inhibition of virus killing in human bronchial epithelial cells (infection assay). The class given is cell-based. The following applies: purity and concentration verified. An excerpt: FIG. 7. […] Analogs in the library are related structures which provide structure-activity information. The z score is the compound value minus the experimental mean value divided by the standard deviation of the experimental population.
It is important to note, that with the exception of one compound (8 in FIG. 7), the values shown are from the screening experiments using compounds for which only estimated concentrations and solubilities were available. Inhibitor 8 has been purchased in large quantities from Chemical Diversity Laboratories (San Diego, Calif.) and its purity and concentration verified prior to obtaining the data on inhibition of virus killing in human bronchial epithelial cells. […] It is possible that some of the other compounds will show improvements in potency once pure stocks of known concentration are obtained (see FIG. 7). […] From these 71 inhibitors, 8 different compound families were chosen for further analyses (see FIG. 7).

The target in a further assay is T1, NS1 protein (Influenza A virus, UniProt P03496).
T1 construct: expressed in transfected cells; host or cells: 293T cells
T1 sequence (P03496 whole entry): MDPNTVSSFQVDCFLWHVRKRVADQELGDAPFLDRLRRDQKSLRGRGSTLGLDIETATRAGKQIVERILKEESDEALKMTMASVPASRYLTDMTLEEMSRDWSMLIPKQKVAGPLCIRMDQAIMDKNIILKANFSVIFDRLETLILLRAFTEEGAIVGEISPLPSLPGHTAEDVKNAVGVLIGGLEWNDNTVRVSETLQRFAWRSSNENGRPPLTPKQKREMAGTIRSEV
In kind it is cell-based.

The test system of assay [1] is mRNA export block induced by influenza virus infection and mediated by NS1. In kind it is cell-based, influenza virus (WSN).
For another assay, the system named is firefly luciferase. The class given is cell-based.

`O=C(O)CCCN1C(=O)c2cccc3c([N+](=O)[O-])ccc(c23)C1=O` [Compound 8.0]: in the assay on influenza virus (WSN), the “WSN HA titer 24H 24 hr” value turned out to be 0.50 and the “WSN HA titer 24H 36 hr” value turned out to be 0.50. Further, the “Potency in the infection assay” value in the assay on influenza virus is listed as “most potent in the infection assay”. Besides, the “Activity in the original screen” value on NS1 protein was “not one of the most active compounds”.

`O=C(O)CCCCCN1C(=O)c2cccc3cccc(c23)C1=O` [Compound 8.1]: in the assay with influenza virus (WSN), the “WSN HA titer 24H 24 hr” value was 1.00 and the “WSN HA titer 24H 36 hr” value is on record as 0.50.

For the molecule `O=C(O)CCN1C(=O)c2cccc3c([N+](=O)[O-])ccc(c23)C1=O` [Compound 8.2], in the assay with influenza virus (WSN), the “WSN HA titer 24H 24 hr” value is given as 0.25 and the “WSN HA titer 24H 36 hr” value came out at 0.50.

Regarding `O=C(O)CCCCCN1C(=O)c2cccc3c(N4CCCCC4)ccc(c23)C1=O` [Compound 8.3], in the assay on influenza virus (WSN), the “Inhibition of virus growth compared with compound 8” value was “more inhibitory of virus growth”, the “Potency for inhibiting virus growth among analogs of compound 8” value was “most potent compound for inhibiting virus growth”, the “WSN HA titer 24H 24 hr” value amounted to 0.13 and the “WSN HA titer 24H 36 hr” value is on record as 0.13. In addition, the “Reversal of mRNA export block” value in assay [1] (MDCK cells infected with WSN, FIG. 10 (10 μM, MOI 0.01, 48 h in FIG. 10A)) is “significantly reverts the mRNA export block”. The “Reversal of mRNA export blockage” value in assay [1] (compound at 50 μM, WSN MOI 1, 12 h (FIG. 10B)) is “significant reversal of mRNA export blockage”. For the same molecule, in the assay on Renilla luciferase, the “Inhibition of Renilla luciferase expression” value is “no effect”. The “Inhibition of firefly luciferase expression” value in the assay on firefly luciferase is “inhibitor of firefly luciferase expression”. Besides, at NS1 protein, the “Inhibition of NS1 protein compared with compound 8” value is given as “more inhibitory of NS1 protein” and the “Score in the luciferase dependent assay” value is on record as “did not score”.

Regarding `CCN1C(=O)c2cccc3c([N+](=O)[O-])ccc(c23)C1=O` [Compound 8.6], in the assay with influenza virus (WSN), the “Inhibition of virus growth compared with compound 8” value was “more inhibitory of virus growth”, the “WSN HA titer 24H 24 hr” value amounted to 0.13 and the “WSN HA titer 24H 36 hr” value was found to be 0.25. The “Inhibition of NS1 protein compared with compound 8” value at NS1 protein was “more inhibitory of NS1 protein”.

Consider `O=C(O)CCCN1C(=O)c2cccc3cc([N+](=O)[O-])cc(c23)C1=O` [Compound 8.9], for which, in the assay with influenza virus (WSN), the “WSN HA titer 24H 24 hr” value was 0.50 and the “WSN HA titer 24H 36 hr” value is 0.50.

For the molecule `O=C(O)CCCCCN1C(=O)c2cccc3c([N+](=O)[O-])ccc(c23)C1=O` [Compound 8.10], in the assay on influenza virus (WSN), the “WSN HA titer 24H 24 hr” value is 0.13 and the “WSN HA titer 24H 36 hr” value came to 0.19.

Turning to `O=C(O)CCN1C(=O)c2cccc3cccc(c23)C1=O` [Compound 8.16], in the assay with influenza virus (WSN), the “WSN HA titer 24H 24 hr” value is listed as 1.00 and the “WSN HA titer 24H 36 hr” value is given as 0.50.
